In one assay the target is T1, mTOR (Homo sapiens, UniProt P42345).
T1 construct: purchased Invitrogen Corporation (Carlsbad/CA, USA) PV4753
The experiment in a line: Biochemical assay for m-TOR by TR-FRET. The note with it: 8 μM ATP, 400 nM GFP-4EBP1, 0.5 nM mTOR. Here is the method: Biochemical Assay for m-TOR by TR-FRET.
Assay components are purchased from Invitrogen Corporation (Carlsbad/CA, USA): GFP-4EBP1 (Cat. No. PV4759), Tb3+-α-p4EBP1 [pThr46] Antibody (Cat. No. PV4757), proprietary TR-FRET dilution buffer (Cat. No. PV3574), mTOR protein (Cat. No. PV4753).
Then 5 μL of ATP (8 μM final concentration) and GFP-4EBP1 (400 nM final concentration) with 5 μL mTOR proteins (0.5 nM final concentration) are incubated at rt. The standard reaction buffer for the TR-FRET mTOR assay contained 50 mM HEPES pH 7.5, 10 mM MnCl2, 50 mM NaCl, 1 mM EGTA, 1 mM DTT. Reactions were stopped with 10 μL of a mixture of EDTA containing the Tb3+-α-p4EBP1-[pT46] detection Ab (0.5 nM) in TR-FRET dilution buffer (proprietary to IVG). Plates are read 15 mins later in a Synergy2 reader using an integration time of 0.2 seconds and a delay of 0.1 seconds. […] A standard compound is used as a reference compound and included in all assay plates in the form of 16 dilution points in duplicate.
For orientation: Time-resolved FRET reads energy transfer from a long-lived donor to a nearby acceptor.

A further assay has as its target T2, PI3K delta (Homo sapiens, UniProt O00329).
T2 construct: for the full-length p110-d subunit are generated and fused by overlapping PCR; p85(iSH2) fusion partner (see partner chain) (N); His tag (C); made in house; host or cells: baculovirus; Tn5 (Trichoplusia ni) or TiniPro insect cells
The experiment in a line: PI3K delta kinase assay (Kinase-Glo luminescence). Type of assay: biochemical. How it is done: (§1) In a more preferred assay, the kinase reaction is performed in a final volume of 10 μL per well of a low volume non binding CORNING, 384 well black plate (Cat. No. #3676). The final concentrations of ATP and phosphatidyl inositol (PI) in the assay are 1 μM and 10 μg/mL respectively. The reaction is started by the addition of ATP.
(§2) The components of the assay are added per well as follows:
(§3) […] in 90% DMSO per well, in columns 1-20, 8 concentrations (1/3 and 1/3.33 serial dilution step) in single. • Low control: […] of 90% DMSO in half the wells of columns 23-24 (0.45% in final). • High control: […] of reference compound (e.g. compound of Example 7 in WO 2006/122806) in the other half of columns 23-24 (2.5 μM in final). • Standard: […] of reference compound as just mentioned diluted as the test compounds in columns 21-22 • 20 mL ‘buffer’ are prepared per assay: • 200 μL of 1M TRIS HCl pH7.5 (10 mM in final) • 60 μL of 1M MgCl2 (3 mM in final) • 500 μL of 2M NaCl (50 mM in final) • 100 μL of 10% CHAPS (0.05% in final) • 200 μL of 100 mM DTT (1 mM in final) • 18.94 mL of nanopure water • 10 mL ‘PI’ are prepared per assay: • 200 μL of 1 mg/ml L-alpha-Phosphatidylinositol (Liver Bovine, Avanti Polar Lipids Cat. No. 840042C MW=909.12) prepared in 3% OctylGlucoside (10 μg/ml in final) • 9.8 mL of ‘buffer’ • 10 mL ‘ATP’ are prepared per assay: • 6.7 μL of 3 mM stock of ATP giving a final concentration of 1 μM per well • 10 mL of ‘buffer’ • 2.5 mL of each PI3K construct are prepared per assay in ‘PI’ with the following final concentration: • 10 nM PI3K alfa EMV B1075 • 25 nM beta EMV BV949 • 10 nM delta EMV BV1060 • 150 nM gamma EMV BV950 • 5 μL of ‘PI/PI3K’ are added per well. • 5 μl ‘ATP’ are added per well to start the reaction. • The plates are then incubated at room temperature for 60 minutes (alfa, beta, delta) or 120 minutes (gamma). • The reaction is terminated by the addition of 10 μL Kinase-Glo (Promega Cat. No. #6714). • The assay plates are read after 10 minutes in Synergy 2 reader (BioTek, Vermont USA) with an integration time of 100 milliseconds and sensitivity set to 191. • Output: The High control is around 60'000 counts and the Low control is 30'000 or lower • This luminescence assay gives a useful Z′ ratio between 0.4 and 0.7
PI3Kγ BV-1060 p85(iSH2)-Gly Linker-p110d(Full-Length)-C-Term his Tag
(§4) IC50 is determined by a four parameter curve fitting routine that comes along with “excel fit”. […] Alternatively, IC50 values are calculated using idbsXLfit model 204, which is a 4 parameter logistic model.
A general note: Kinase-Glo measures the ATP left after a reaction by luminescence.

The target in a further assay is T3, PI3K beta (Homo sapiens, UniProt P42338).
T3 construct: for the full-length p110-b subunit are generated and fused by overlapping PCR; p85(iSH2) fusion partner (see partner chain) (N); His tag (C); made in house; host or cells: baculovirus; Tn5 (Trichoplusia ni) or TiniPro insect cells
T3 sequence (P42338 with tags, fused parts or gaps limits assumed): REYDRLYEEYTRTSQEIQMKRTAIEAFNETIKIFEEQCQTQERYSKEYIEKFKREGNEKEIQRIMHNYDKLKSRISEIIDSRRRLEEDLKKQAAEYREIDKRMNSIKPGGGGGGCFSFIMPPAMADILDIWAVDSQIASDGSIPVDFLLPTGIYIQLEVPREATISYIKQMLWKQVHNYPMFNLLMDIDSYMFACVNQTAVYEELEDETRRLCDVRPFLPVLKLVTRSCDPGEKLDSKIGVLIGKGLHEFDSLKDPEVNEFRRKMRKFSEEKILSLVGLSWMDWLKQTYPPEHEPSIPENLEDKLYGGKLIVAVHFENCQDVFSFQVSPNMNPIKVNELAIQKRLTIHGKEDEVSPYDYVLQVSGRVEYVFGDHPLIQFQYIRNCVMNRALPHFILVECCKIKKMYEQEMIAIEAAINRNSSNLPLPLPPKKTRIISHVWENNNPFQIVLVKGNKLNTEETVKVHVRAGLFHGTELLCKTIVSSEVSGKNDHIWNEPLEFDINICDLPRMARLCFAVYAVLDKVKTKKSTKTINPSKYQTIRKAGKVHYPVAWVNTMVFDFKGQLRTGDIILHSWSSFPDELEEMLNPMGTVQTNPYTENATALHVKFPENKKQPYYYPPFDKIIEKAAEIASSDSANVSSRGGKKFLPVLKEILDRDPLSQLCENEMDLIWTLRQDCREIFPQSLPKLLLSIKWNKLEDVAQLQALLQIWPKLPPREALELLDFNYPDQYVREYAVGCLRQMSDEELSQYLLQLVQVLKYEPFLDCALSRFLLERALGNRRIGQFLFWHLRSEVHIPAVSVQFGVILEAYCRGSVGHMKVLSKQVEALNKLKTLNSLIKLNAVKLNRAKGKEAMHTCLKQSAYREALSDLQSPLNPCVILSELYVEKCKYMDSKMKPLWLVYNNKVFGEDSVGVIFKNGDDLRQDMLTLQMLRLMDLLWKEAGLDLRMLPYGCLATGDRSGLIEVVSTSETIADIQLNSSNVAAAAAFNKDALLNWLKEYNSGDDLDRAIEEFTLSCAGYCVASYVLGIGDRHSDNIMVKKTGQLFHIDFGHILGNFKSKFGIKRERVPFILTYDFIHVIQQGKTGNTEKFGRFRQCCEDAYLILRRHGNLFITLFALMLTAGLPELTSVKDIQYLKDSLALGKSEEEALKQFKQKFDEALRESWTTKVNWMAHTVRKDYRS
In words: PI3K beta kinase assay (Kinase-Glo luminescence). Type of assay: biochemical. How it is done: as §1, §2, §3
PI3Kβ BV-949 p85(iSH2)-Gly Linker-p110b(Full-Length)-C-Term his Tag
as §4

In the next assay the target is T4, PI3K alpha (Homo sapiens, UniProt P42336).
T4 construct: p85(iSH2) fusion partner (see partner chain) (N); His tag (C); made in house; host or cells: baculovirus; Tn5 (Trichoplusia ni) or TiniPro insect cells
T4 sequence (P42336 with tags, fused parts or gaps limits assumed): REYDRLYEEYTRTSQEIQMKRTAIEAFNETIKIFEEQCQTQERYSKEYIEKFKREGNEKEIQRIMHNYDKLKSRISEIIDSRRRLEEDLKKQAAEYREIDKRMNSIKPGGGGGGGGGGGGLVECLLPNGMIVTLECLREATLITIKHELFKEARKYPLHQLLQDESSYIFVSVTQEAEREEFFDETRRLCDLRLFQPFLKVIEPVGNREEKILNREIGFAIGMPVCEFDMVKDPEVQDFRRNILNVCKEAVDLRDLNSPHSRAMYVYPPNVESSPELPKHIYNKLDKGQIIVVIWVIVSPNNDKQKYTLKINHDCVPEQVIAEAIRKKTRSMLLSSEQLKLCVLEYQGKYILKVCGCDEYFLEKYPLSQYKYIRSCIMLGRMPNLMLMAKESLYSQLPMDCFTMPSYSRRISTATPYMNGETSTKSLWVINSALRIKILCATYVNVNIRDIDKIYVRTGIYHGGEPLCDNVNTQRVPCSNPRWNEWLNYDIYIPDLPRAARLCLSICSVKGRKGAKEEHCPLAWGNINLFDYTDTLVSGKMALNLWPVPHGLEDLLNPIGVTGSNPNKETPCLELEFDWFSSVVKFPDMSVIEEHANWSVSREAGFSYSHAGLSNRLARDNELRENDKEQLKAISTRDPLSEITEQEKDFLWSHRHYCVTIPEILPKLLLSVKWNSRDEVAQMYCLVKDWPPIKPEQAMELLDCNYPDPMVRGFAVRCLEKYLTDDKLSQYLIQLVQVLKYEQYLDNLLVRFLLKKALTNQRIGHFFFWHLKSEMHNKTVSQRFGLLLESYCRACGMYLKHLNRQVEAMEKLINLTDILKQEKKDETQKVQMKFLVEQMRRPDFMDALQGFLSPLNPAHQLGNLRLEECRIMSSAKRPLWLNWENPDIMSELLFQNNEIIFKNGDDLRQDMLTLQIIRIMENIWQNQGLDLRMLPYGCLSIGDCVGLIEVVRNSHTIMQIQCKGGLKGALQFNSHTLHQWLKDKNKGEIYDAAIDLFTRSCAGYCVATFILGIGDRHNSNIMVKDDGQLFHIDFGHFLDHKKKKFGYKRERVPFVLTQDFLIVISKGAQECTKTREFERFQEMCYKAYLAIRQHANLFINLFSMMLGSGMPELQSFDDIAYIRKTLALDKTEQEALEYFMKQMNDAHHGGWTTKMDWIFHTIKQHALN
In words: PI3K alpha kinase assay (Kinase-Glo luminescence). The class given is biochemical. Here is the method:
as §1, §2, §3
Two different constructs, BV 1052 and BV 1075, are used to generate the PI3 Kinase a proteins for compound screening.
as §4

The test system of assay [1] is S6 Ribosomal Protein phosphorylation Ser235/236 in TSC1 null mouse embryo fibroblast (MEF) cells. The experiment in a line: Reverse protein array assay, S6 Ribosomal Protein phosphorylation Ser235/236 in TSC1 null MEF cells. The note with it: 1 h, pS6 ribosomal protein Ser235/236, 60 minutes incubation, read-out: p-S6 IC50. The class given is cell-based. How it is done: (§5) The TSC1−/− cells were trypsinized and counted with a CASY TT cell counter (Schirfe System GmbH, Reutlingen Germany). […] The plates were incubated at 37° C. and 5% CO2 under humidified condition for at least 20 h. Working solutions were prepared freshly as serial 8 step dilutions (vol/vol) in DMSO on the day of the experiment. […] The final DMSO concentration was kept constant at 0.02%. cell culture medium containing 0.02% DMSO was used as vehicle treatment control. Post incubation, the cells were treated with the serial compound dilution. 50 μl of the compound medium mixture was added to the wells containing cells and 150 μl DMEM medium and incubated for 60 minutes (37° C., 5% CO2). After 60 minutes of incubation, the medium mixture was quickly removed by aspiration. […] 50 μl of the described lysis buffer mix was added to each well, followed by 10 minutes of incubation on ice.
The spotting of the chips follows the previous described method.

Assay [2] has as its system PKB Ser473 phosphorylation in Rat1-myr-HA-p110 alpha cells. In words: Reverse protein array assay, PKB Ser473 phosphorylation in Rat1-myr-p110 alpha cells. The class given is cell-based. The note with it: 0.5 h, pAkt Ser473, 30 minutes compound incubation, read-out: p-PKB IC50. Here is the method: as §5, with “Rat1-myr-HA-p110 alpha, beta and delta” for “TSC1−/−”, “(Schärfe” for “(Schirfe”, “Compound of formula I working” for “Working”, “0.2%.” for “0.02%.”, “0.2%” for “0.02%”, “30” for “60”
(§6) The samples were spotted onto ZeptoMARKt PWG protein microarray chips (Zeptosens, Witterswil, Switzerland) with the piezoelectric microdispense-based, non-contact Nano-Plotter 2.1 (GeSiM, Grosserkmannsdorf, Germany). Each sample was spotted at 4 different sample concentrations (d1=100%, d2=75%, d3=50%, d4=25%) by diluting the cell lysate with the corresponding volume of lysis buffer mix. After spotting the ZeptoMARK® protein microarrays, the chips are incubated for 1 hour at 37° C. […] After 20 minutes of blocking the chips are extensively rinsed with deionized water (Milli-Q quality, 18MΩ×cm) and dried in a nitrogen air flow.
(§7) After incubation, the arrays were washed twice with 200 μl CAB1 buffer. […] The fluorescence signal was assessed with exposure times of 1, 3, 5 and 10 seconds, depending on the intensity of the signal. The resulting four images taken per array are stored as 16-bit TIF files.
(§8) The fluorescence images for each array were analyzed with the ZeptoVIEW Pro 2.0 software (Zeptosens, Witterswil, Switzerland) and the relative fluorescence intensity for each signal was calculated.

The test system of assay [3] is PKB Ser473 phosphorylation in Rat1-myr-HA-p110 delta cells. The experiment in a line: Reverse protein array assay, PKB Ser473 phosphorylation in Rat1-myr-p110 delta cells. Type of assay: cell-based. The note with it: read-out: p-PKB IC50. How it is done: as §5, with “Rat1-myr-HA-p110 alpha, beta and delta” for “TSC1−/−”, “(Schärfe” for “(Schirfe”, “Compound of formula I working” for “Working”, “0.2%.” for “0.02%.”, “0.2%” for “0.02%”, “30” for “60”
as §6, §7, §8

The subject of assay [4] is PKB Ser473 phosphorylation in Rat1-myr-HA-p110 beta cells. The experiment in a line: Reverse protein array assay, PKB Ser473 phosphorylation in Rat1-myr-p110 beta cells. The class given is cell-based. The note with it: 0.5 h, pAkt Ser473, 30 minutes incubation, read-out: p-PKB IC50. How it is done: as §5, with “Rat1-myr-HA-p110 alpha, beta and delta” for “TSC1−/−”, “(Schärfe” for “(Schirfe”, “Compound of formula I working” for “Working”, “0.2%.” for “0.02%.”, “0.2%” for “0.02%”, “30” for “60”
as §6, §7, §8

T1 sequence (P42345 1360-2549 limits assumed): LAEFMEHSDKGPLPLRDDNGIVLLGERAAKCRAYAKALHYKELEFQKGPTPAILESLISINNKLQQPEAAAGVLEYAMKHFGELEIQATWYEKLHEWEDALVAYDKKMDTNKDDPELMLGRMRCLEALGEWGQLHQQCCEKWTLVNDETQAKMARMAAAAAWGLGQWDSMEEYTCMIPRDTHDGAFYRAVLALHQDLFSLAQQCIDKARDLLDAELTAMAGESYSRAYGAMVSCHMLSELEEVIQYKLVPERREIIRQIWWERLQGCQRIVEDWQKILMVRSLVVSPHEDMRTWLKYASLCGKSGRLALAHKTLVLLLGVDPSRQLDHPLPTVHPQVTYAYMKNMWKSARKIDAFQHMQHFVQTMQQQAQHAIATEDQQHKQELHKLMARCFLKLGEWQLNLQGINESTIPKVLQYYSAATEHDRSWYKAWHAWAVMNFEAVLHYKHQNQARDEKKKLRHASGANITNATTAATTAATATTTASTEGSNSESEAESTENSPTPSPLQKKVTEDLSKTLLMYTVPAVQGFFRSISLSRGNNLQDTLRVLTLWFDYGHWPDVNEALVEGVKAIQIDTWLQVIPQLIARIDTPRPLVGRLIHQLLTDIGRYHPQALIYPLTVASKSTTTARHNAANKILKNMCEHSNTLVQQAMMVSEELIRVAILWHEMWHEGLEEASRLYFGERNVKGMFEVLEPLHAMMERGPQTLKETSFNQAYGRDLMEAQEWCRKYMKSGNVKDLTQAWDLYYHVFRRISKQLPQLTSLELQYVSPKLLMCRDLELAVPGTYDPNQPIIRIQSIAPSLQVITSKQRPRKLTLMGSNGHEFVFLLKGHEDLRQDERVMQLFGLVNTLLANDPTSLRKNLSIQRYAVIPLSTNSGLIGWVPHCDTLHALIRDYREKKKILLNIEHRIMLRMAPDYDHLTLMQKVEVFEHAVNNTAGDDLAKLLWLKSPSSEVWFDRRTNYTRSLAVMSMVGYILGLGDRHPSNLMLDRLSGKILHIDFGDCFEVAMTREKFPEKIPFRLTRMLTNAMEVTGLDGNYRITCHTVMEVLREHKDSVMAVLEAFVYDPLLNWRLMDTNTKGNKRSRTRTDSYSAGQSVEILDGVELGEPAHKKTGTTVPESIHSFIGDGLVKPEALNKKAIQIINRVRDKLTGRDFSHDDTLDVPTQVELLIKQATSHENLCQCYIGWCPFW
T2 sequence (O00329 with tags, fused parts or gaps limits assumed): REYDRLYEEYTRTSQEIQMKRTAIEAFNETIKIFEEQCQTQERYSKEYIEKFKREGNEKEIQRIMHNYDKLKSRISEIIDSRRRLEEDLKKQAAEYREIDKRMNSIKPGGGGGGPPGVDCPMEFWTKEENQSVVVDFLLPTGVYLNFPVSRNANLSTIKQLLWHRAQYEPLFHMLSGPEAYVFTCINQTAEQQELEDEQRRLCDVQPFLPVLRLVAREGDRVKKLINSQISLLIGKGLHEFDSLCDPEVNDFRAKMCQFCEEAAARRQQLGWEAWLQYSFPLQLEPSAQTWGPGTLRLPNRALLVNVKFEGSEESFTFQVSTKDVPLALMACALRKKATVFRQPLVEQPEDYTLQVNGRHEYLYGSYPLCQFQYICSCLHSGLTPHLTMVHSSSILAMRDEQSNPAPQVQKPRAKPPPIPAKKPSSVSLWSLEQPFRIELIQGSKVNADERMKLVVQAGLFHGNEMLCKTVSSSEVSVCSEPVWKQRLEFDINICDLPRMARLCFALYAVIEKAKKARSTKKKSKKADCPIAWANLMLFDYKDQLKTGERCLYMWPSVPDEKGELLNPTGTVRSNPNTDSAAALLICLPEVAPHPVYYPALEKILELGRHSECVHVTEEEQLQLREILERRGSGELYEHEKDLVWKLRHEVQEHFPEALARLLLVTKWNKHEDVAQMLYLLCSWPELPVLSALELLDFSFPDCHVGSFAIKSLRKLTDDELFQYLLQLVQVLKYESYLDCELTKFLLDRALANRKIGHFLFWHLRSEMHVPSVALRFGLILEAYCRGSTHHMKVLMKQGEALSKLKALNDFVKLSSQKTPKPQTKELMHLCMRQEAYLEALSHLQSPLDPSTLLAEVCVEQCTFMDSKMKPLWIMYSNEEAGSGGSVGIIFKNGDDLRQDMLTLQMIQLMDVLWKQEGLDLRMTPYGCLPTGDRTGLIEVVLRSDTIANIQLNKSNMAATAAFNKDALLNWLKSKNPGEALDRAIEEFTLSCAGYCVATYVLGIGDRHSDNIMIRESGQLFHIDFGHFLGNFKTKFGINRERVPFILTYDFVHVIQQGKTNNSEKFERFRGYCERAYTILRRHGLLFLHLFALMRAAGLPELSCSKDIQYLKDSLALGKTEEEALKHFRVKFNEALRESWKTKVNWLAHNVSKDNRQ

Broadly, the IC50 is the concentration that inhibits the measured activity by half. Regarding `Cc1ccc(-c2ccc3ncc4c(c3c2)n(-c2cc(C)nn2C)c(=O)n4C)cn1` [Example 7.1, 1-(2,5-Dimethyl-2H-pyrazol-3-yl)-3-methyl-8-(6-methyl-pyridin-3-yl)-1,3-dihydro-imidazo[4,5-c]quinolin-2-one], the IC50 on mTOR was determined as 105 nM; on PI3K delta, 68 nM; at PI3K beta, 404 nM; on PI3K alpha, 46 nM.

For `CCN(C)C(=O)Cn1cc(-n2c(=O)n(C)c3cnc4ccc(-c5ccc(-n6cccn6)cc5)cc4c32)c(C)n1` [Example 51.6, N-Ethyl-N-methyl-2-{3-methyl-4-[3-methyl-2-oxo-8-(4-pyrazol-1-yl-phenyl)-2,3-dihydro-imidazo[4,5-c]quinolin-1-yl]pyrazol-1-yl}-acetamide], the IC50 is 27 nM at mTOR; less than 0.5 nM in assay [1]; 12 nM in assay [2]; 15 nM in assay [3]; 61 nM on PI3K alpha; 12 nM in assay [4].

In the case of `COc1nc2cc(-c3ccc4ncc5c(c4c3)n(-c3cn(C)nc3C)c(=O)n5C)cnc2n1C` [Example 71, 1-(1,3-Dimethyl-1H-pyrazol-4-yl)-8-(2-methoxy-3-methyl-3H-imidazo[4,5-b]pyridin-6-yl)-3-methyl-1,3-dihydro-imidazo[4,5-c]quinolin-2-one], the IC50 was found to be 564 nM on mTOR; 13 nM in assay [1]; 262 nM at PI3K delta; 37 nM in assay [2]; 377 nM in assay [3]; 110 nM in assay [4].

Take `CCn1cc(-n2c(=O)n(C)c3cnc4ccc(-c5cnc(CO)c(NC)c5)cc4c32)c(C)n1` [Example 158.5, 1-(1-Ethyl-3-methyl-1H-pyrazol-4-yl)-8-(6-hydroxymethyl-5-methylamino-pyridin-3-yl)-3-methyl-1,3-dihydro-imidazo[4,5-c]quinolin-2-one]: the 50% inhibitory concentration (IC50) at mTOR was 3 nM; on PI3K delta, 7 nM; at PI3K beta, 21 nM; on PI3K alpha, 14 nM.

For the compound `Cc1nn(CC(=O)N2CCOCC2)cc1-n1c(=O)n(C)c2cnc3ccc(-c4cnc(N5CCCC5)nc4)cc3c21` [Example 247.3, 3-Methyl-1-[3-methyl-1-(2-morpholin-4-yl-2-oxo-ethyl)-1H-pyrazol-4-yl]-8-(2-pyrrolidin-1-yl-pyrimidin-5-yl)-1,3-dihydro-imidazo[4,5-c]quinolin-2-one], the half-maximal inhibitory concentration (IC50) on mTOR was determined as 28 nM; in assay [1], 35 nM; in assay [2] it was 175 nM; in assay [3], 636 nM; at PI3K alpha it was 163 nM; in assay [4] it was 240 nM.

As to `CCn1cc(-n2c(=O)n(C)c3cnc4ccc(-c5cnc(NC)c(COC)c5)cc4c32)c(C)n1` [Example 248.2, 1-(1-Ethyl-3-methyl-1H-pyrazol-4-yl)-8-(5-methoxymethyl-6-methylamino-pyridin-3-yl)-3-methyl-1,3-dihydro-imidazo[4,5-c]quinolin-2-one], the IC50 on mTOR turned out to be 15 nM; on PI3K delta it was 3 nM; at PI3K beta, 22 nM; at PI3K alpha, 8 nM.

Consider `CNc1ncc(-c2ccc3ncc4c(c3c2)n(-c2c(C)nn(C)c2C)c(=O)n4C)cc1COC` [Example 248.5, 8-(5-Methoxymethyl-6-methylamino-pyridin-3-yl)-3-methyl-1-(1,3,5-trimethyl-1H-pyrazol-4-yl)-1,3-dihydro-imidazo[4,5-c]quinolin-2-one], for which the IC50 at mTOR was 565 nM; on PI3K delta it was 14 nM; on PI3K beta, 144 nM; on PI3K alpha, 32 nM.

The values are drawn from patent US20140005163A1 (NOVARTIS AG, priority 2010, published 2014).
